Data on twelve compounds can be found in paper PMC2736638 (Journal of medicinal chemistry, 2009).

The subject of one data set is HIV-1NL4-3. Briefly: HIV-1NL4-3 replication inhibition assay in MT-4 lymphocytes. The data set is classed as cell-based. As to conditions: HIV-1NL4-3, MT-4 cells.
A further data set can be described thus: Solubility. It counts as physicochemical. The note with it: qualitative.
In a further data set the test system is HIV-1IIIB. In words: HIV-1IIIB replication inhibition assay in MT-2 lymphocytes. It counts as cell-based. As to conditions: for TI = CC50/EC50: HIV-1IIIB, MT-2 cells.
For data set [1] the following is noted: incubation time 0 min; 3 μM, 0.2 mg/mL human liver microsome, NADPH. A general note: Liver microsomes are a subcellular fraction often used to study metabolism.
The nature of a further data set: in vitro. The note with it: human, microsomes, pH 7.4.

Each structure is given as a SMILES string. “And” between values parts separate entries of the source, which are not always exact repeats. Equal entries are not always repeated. “Also recorded” adds a separate entry of the source.

`C=C(C)[C@@H]1CC[C@]2(C(=O)NCCCCCCCC(=O)N[C@@H](CC(C)C)[C@H](O)CC(=O)O)CC[C@]3(C)[C@H](CC[C@@H]4[C@@]5(C)CC[C@H](O)C(C)(C)[C@@H]5CC[C@]43C)[C@@H]12` [Compound 3b, (3R,4S)-N’-[N-[3β-hydroxylup-20(29)-en-28-oyl]-8-aminooctanoyl]-4-amino-3-hydroxy-6-methylheptanoic acid]: the “TI = CC50/EC50” value with HIV-1NL4-3 is more than 112.4.
As to `C=C(COCCN1CCOCC1)[C@@H]1CC[C@]2(C(=O)NCCCCCCCC(=O)O)CC[C@]3(C)[C@H](CC[C@@H]4[C@@]5(C)CC[C@H](O)C(C)(C)[C@@H]5CC[C@]43C)[C@@H]12` [Compound 20, N-[3β-Hydroxy-30-(2′-morpholinoethoxy)-lup-20(29)-en-28-oyl]-8-aminooctanoic acid], the solubility entry in the data set “Solubility” was “increase in the derivative’s solubility”.
For `C=C(COCCN1CCOCC1)[C@@H]1CC[C@]2(C(=O)NCCCCCCCC(=O)NC)CC[C@]3(C)[C@H](CC[C@@H]4[C@@]5(C)CC[C@H](O)C(C)(C)[C@@H]5CC[C@]43C)[C@@H]12` [Compound 21], the solubility result in “Solubility” is recorded as “improved solubility; also recorded: good solubility”.
Take `C=C(C)[C@@H]1CC[C@]2(C(=O)N[C@@H](CC(C)C)C(=O)O)CC[C@]3(C)[C@H](CC[C@@H]4[C@@]5(C)CC[C@H](O)C(C)(C)[C@@H]5CC[C@]43C)[C@@H]12` [Compound 22, N-[3β-Hydroxy-lup-20(29)-en-28-oyl]-leucine]: the “EC50: concentration that inhibits HIV-1IIIB replication by 50%” value in the data set with HIV-1IIIB (HIV-1IIIB infected MT-2 cells, averages of at least three experiments) is on record as “did not exhibit antiviral replication activity”.
Turning to `C=C(C)[C@@H]1CC[C@]2(C(=O)NCCCCCCCC(=O)O)CC[C@]3(C)[C@H](CC[C@@H]4[C@@]5(C)CC[C@H](O)C(C)(C)[C@@H]5CC[C@]43C)[C@@H]12` [Compound 23, N-[3β-Hydroxy-lup-20(29)-en-28-oyl]-8-aminooctanoic acid], in data set [1], the “Persentage of Remaining Parent Compounds (X±SD)%” value was 100.0%.
Regarding `C=C(CBr)[C@@H]1CC[C@]2(C(=O)N[C@@H](CC(C)C)C(=O)O)CC[C@]3(C)[C@H](CC[C@@H]4[C@@]5(C)CC[C@H](OC(=O)CC(C)(C)C(=O)O)C(C)(C)[C@@H]5CC[C@]43C)[C@@H]12` [Compound 30, N-[3β-O-(3′,3′-Dimethylsuccinyl)-30-bromo-lup-20(29)-en-28-oyl]-leucine], the “TI = CC50/EC50” value in the data set on HIV-1IIIB is 3.0×10^3 and 3,022.
The term half-life denotes the time needed for the level to fall by half in the phase considered. With `C=C(C)[C@@H]1CC[C@]2(C(=O)N3CCC(CCCC(=O)O)CC3)CC[C@]3(C)[C@H](CC[C@@H]4[C@@]5(C)CC[C@H](O)C(C)(C)[C@@H]5CC[C@]43C)[C@@H]12` [Compound 38, N-[3β-Hydroxy-lup-20(29)-en-28-oyl]-4-piperidine butyric acid], the “Persentage of Remaining Parent Compounds (X±SD)%” value in data set [1] was determined as 100.0%. This compound gave a half-life in the data set “in vitro” of approximately 2.08 h.
As for `C=C(C)[C@@H]1CC[C@]2(C(=O)N3CCC(CCCC(=O)O)CC3)CC[C@]3(C)[C@H](CC[C@@H]4[C@@]5(C)CC[C@H](OC(=O)CC(C)(C)C(=O)O)C(C)(C)[C@@H]5CC[C@]43C)[C@@H]12` [Compound 39, N-[3β-O-(3′,3′-Dimethylsuccinyl)-lup-20(29)-en-28-oyl]-4-piperidine butyric acid], the “TI = CC50/EC50” value with HIV-1IIIB was 1.4 ×10^3 and 1,389.
In the case of `C=C(C)[C@@H]1CC[C@]2(C(=O)N3CCC(CCCC(=O)NC)CC3)CC[C@]3(C)[C@H](CC[C@@H]4[C@@]5(C)CC[C@H](OC(=O)CC(C)(C)C(=O)O)C(C)(C)[C@@H]5CC[C@]43C)[C@@H]12` [Compound 45, N’-[N-[3β-O-(3′,3′-Dimethylsuccinyl)-lup-20(29)-en-28-oyl]-4-piperidine-butanoyl]-aminomethane], the “TI = CC50/EC50” value with HIV-1NL4-3 is reported as more than 41.7.
As to `C=C(C)[C@@H]1CC[C@]2(C(=O)N3CCC(CCCC(=O)N4CCOCC4)CC3)CC[C@]3(C)[C@H](CC[C@@H]4[C@@]5(C)CC[C@H](OC(=O)CC(C)(C)C(=O)O)C(C)(C)[C@@H]5CC[C@]43C)[C@@H]12` [Compound 46, N’-[N-[3β-O-(3′,3′-Dimethylsuccinyl)-lup-20(29)-en-28-oyl]-4-piperidine-butanoyl]-morpholine], in the data set with HIV-1IIIB, the “TI = CC50/EC50” value is 1,748.
`C=C(C)[C@@H]1CC[C@]2(C(=O)N3CCC(CCCC(=O)NCCN4CCOCC4)CC3)CC[C@]3(C)[C@H](CC[C@@H]4[C@@]5(C)CC[C@H](OC(=O)CC(C)(C)C(=O)O)C(C)(C)[C@@H]5CC[C@]43C)[C@@H]12` [Compound 47, N’-[N-[3β-O-(3′,3′-Dimethylsuccinyl)-lup-20(29)-en-28-oyl]-4-piperidine-butanoyl]-2-aminoethylmorpholine]: the “TI = CC50/EC50” value in the data set on HIV-1IIIB is listed as 2,473.
As to `C=C(C)[C@@H]1CC[C@]2(C(=O)N3CCC(CCCC(=O)NCCCN4CCOCC4)CC3)CC[C@]3(C)[C@H](CC[C@@H]4[C@@]5(C)CC[C@H](OC(=O)CC(C)(C)C(=O)O)C(C)(C)[C@@H]5CC[C@]43C)[C@@H]12` [Compound 48, N’-[N-[3β-O-(3′,3′-Dimethylsuccinyl)-lup-20(29)-en-28-oyl]-4-piperidine-butanoyl]-3-aminopropylmorpholine], the “TI = CC50/EC50” value in the data set on HIV-1IIIB is 3,087.
